According to patent US7846959B2, “Raf modulators and methods of use” (Exelixis, Inc., priority 2004, dated 2010):

Assays:
c-Raf = c-Raf (Homo sapiens, UniProt P04049); assay: Luciferase-coupled chemiluminescence kinase assay (ATP consumption), c-Raf; assay type: biochemical; details: read-out: cRaf-1 IC50
Summary of the method: (§1)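 Pre-incub. kinase […] + cpd, 30 min RT (20 mM Tris pH 7.5, 10 mM MgCl2, 0.03% TX-100, 1 mM DTT). Start w/ ATP, 3 h ambient. Luciferase-luciferin mix added and luminescence read. Total ATP use 25-60%. IC50 derived.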

B-Raf = B-Raf (Homo sapiens, UniProt P15056); assay: Luciferase-coupled chemiluminescence kinase assay (ATP consumption), B-Raf; assay type: biochemical; details: read-out: bRaf IC50
Summary of the method: as §1

Sequence of c-Raf (P04049 whole entry): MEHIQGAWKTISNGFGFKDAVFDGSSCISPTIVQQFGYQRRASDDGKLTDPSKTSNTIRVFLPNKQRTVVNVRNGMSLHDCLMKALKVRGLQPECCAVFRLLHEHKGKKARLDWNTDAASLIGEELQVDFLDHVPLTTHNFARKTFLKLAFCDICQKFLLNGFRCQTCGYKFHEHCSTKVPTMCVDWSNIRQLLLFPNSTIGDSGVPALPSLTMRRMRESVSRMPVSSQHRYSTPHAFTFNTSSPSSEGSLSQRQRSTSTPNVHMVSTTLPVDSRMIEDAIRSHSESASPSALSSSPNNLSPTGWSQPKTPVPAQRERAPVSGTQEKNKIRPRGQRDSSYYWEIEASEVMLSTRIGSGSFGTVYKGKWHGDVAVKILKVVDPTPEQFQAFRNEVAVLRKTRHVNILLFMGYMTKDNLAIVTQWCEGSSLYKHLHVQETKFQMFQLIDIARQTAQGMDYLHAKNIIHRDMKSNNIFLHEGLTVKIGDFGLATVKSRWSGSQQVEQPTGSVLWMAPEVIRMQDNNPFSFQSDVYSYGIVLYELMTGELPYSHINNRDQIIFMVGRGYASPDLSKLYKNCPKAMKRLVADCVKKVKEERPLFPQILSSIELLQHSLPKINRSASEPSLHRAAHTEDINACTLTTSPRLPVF
Sequence of B-Raf (P15056 whole entry): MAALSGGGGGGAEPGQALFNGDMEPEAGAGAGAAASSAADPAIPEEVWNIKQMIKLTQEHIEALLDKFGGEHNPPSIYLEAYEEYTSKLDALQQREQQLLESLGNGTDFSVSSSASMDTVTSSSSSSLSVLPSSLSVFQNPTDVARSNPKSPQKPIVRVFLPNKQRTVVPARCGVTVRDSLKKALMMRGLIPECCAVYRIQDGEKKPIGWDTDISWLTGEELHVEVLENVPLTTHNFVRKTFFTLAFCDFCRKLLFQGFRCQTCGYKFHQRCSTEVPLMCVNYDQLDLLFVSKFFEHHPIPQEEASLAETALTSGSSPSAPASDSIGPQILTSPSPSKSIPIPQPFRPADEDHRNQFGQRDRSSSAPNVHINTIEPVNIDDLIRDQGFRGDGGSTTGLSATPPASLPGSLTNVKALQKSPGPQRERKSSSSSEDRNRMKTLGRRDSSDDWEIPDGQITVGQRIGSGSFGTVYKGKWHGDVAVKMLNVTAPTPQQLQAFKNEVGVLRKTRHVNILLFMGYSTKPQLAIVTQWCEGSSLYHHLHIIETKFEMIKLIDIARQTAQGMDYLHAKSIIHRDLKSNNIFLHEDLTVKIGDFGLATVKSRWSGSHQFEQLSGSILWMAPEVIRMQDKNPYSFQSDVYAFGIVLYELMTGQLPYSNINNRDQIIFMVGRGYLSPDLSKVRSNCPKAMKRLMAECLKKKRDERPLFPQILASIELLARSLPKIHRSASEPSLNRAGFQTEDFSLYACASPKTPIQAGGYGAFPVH

SMILES	IC50 (c-Raf) [nM]	IC50 (B-Raf) [nM]
C#Cc1cccc(N2C(=O)c3ccccc3C2(O)c2ccc3[nH]c(NC(=O)OC)nc3c2)c1 (centres unmarked) [Entry 179, methyl {5-[2-(3-ethynylphenyl)-1-hydroxy-3-oxo-2,3-dihydro-1H-isoindol-1-yl]-1H-benzimidazol-2-yl}carbamate]	< 100	< 100
COC(=O)Nc1nc2cc(C3(O)c4ccccc4C(=O)N3c3ccc(Cl)c(C)c3)ccc2[nH]1 (centres unmarked) [Entry 180, methyl {5-[2-(4-chloro-3-methylphenyl)-1-hydroxy-3-oxo-2,3-dihydro-1H-isoindol-1-yl]-1H-benzimidazol-2-yl}carbamate]	< 100	< 100
COC(=O)Nc1nc2cc(C3(O)c4ccccc4C(=O)N3C(C)c3cccc(C(F)(F)F)c3)ccc2[nH]1 (centres unmarked) [Entry 181, methyl [5-(1-hydroxy-3-oxo-2-{1-[3-(trifluoromethyl)phenyl]ethyl}-2,3-dihydro-1H-isoindol-1-yl)-1H-benzimidazol-2-yl]carbamate]	1000 to 10000	1000 to 10000
COC(=O)Nc1nc2cc(C3(O)c4ccccc4C(=O)N3c3ccccc3OC(F)(F)F)ccc2[nH]1 (centres unmarked) [Entry 183, methyl [5-(1-hydroxy-3-oxo-2-{2-[(trifluoromethyl)oxy]phenyl}-2,3-dihydro-1H-isoindol-1-yl)-1H-benzimidazol-2-yl]carbamate]	100 to 1000	< 100
O=C(Nc1nc2cc(C3(O)c4ccccc4C(=O)N3Cc3ccccc3)ccc2[nH]1)OC1CCCCC1 (centres unmarked) [Entry 185, cyclohexyl {5-[1-hydroxy-3-oxo-2-(phenylmethyl)-2,3-dihydro-1H-isoindol-1-yl]-1H-benzimidazol-2-yl}carbamate]	100 to 1000	100 to 1000
O=C(Nc1nc2cc(C3(O)c4ccccc4C(=O)N3Cc3ccccc3)ccc2[nH]1)OCC1CCCO1 (centres unmarked) [Entry 186, tetrahydrofuran-2-ylmethyl {5-[1-hydroxy-3-oxo-2-(phenylmethyl)-2,3-dihydro-1H-isoindol-1-yl]-1H-benzimidazol-2-yl}carbamate]	< 100	< 100
O=C(Nc1nc2cc(C3(O)c4ccccc4C(=O)N3Cc3ccccc3)ccc2[nH]1)OCC1CC1 (centres unmarked) [Entry 187, cyclopropylmethyl {5-[1-hydroxy-3-oxo-2-(phenylmethyl)-2,3-dihydro-1H-isoindol-1-yl]-1H-benzimidazol-2-yl}carbamate]	< 100	< 100
O=C(Nc1nc2cc(C3(O)c4ccccc4C(=O)N3Cc3ccccc3)ccc2[nH]1)N1CCOCC1 (centres unmarked) [Entry 188, N-{5-[1-hydroxy-3-oxo-2-(phenylmethyl)-2,3-dihydro-1H-isoindol-1-yl]-1H-benzimidazol-2-yl}morpholine-4-carboxamide]	100 to 1000	1000 to 10000
COC(=O)Nc1nc2cc(C3(O)c4ccccc4C(=O)N3CC3CCCC3)ccc2[nH]1 (centres unmarked) [Entry 189, methyl {5-[2-(cyclopentylmethyl)-1-hydroxy-3-oxo-2,3-dihydro-1H-isoindol-1-yl]-1H-benzimidazol-2-yl}carbamate]	< 100	< 100
COC(=O)Nc1nc2cc(C3(O)c4ccccc4C(=O)N3[C@H](C(=O)OC)C3CCCCC3)ccc2[nH]1 (stereo partly drawn) [Entry 192, methyl (2S)-cyclohexyl[1-hydroxy-1-(2-{[(methyloxy)carbonyl]amino}-1H-benzimidazol-5-yl)-3-oxo-1,3-dihydro-2H-isoindol-2-yl]ethanoate]	1000 to 10000	1000 to 10000
COC(=O)Nc1nc2cc(C3(O)c4ccccc4C(=O)N3c3c(F)cccc3F)ccc2[nH]1 (centres unmarked) [Entry 193, methyl {5-[2-(2,6-difluorophenyl)-1-hydroxy-3-oxo-2,3-dihydro-1H-isoindol-1-yl]-1H-benzimidazol-2-yl}carbamate]	< 100	< 100
COC(=O)Nc1nc2cc(C3(O)c4ccccc4C(=O)N3c3ccc(F)c(Cl)c3)ccc2[nH]1 (centres unmarked) [Entry 194, methyl {5-[2-(3-chloro-4-fluorophenyl)-1-hydroxy-3-oxo-2,3-dihydro-1H-isoindol-1-yl]-1H-benzimidazol-2-yl}carbamate]	< 100	< 100
C=CCCOC(=O)Nc1nc2cc(C3(O)c4ccccc4C(=O)N3Cc3ccccc3)ccc2[nH]1 (centres unmarked) [Entry 195, but-3-en-1-yl {5-[1-hydroxy-3-oxo-2-(phenylmethyl)-2,3-dihydro-1H-isoindol-1-yl]-1H-benzimidazol-2-yl}carbamate]	< 100	< 100
O=C(Nc1nc2cc(C3(O)c4ccccc4C(=O)N3Cc3ccccc3)ccc2[nH]1)OCC(F)(F)F (centres unmarked) [Entry 196, 2,2,2-trifluoroethyl {5-[1-hydroxy-3-oxo-2-(phenylmethyl)-2,3-dihydro-1H-isoindol-1-yl]-1H-benzimidazol-2-yl}carbamate]	< 100	< 100

Results, then the compound that gave them:

IC50 (c-Raf) [nM]	IC50 (B-Raf) [nM]	SMILES
< 100	< 100	COC(=O)Nc1nc2cc(C3(O)c4ccccc4C(=O)N3c3cc(C)cc(C(F)(F)F)c3)ccc2[nH]1 (centres unmarked) [Entry 175, methyl (5-{1-hydroxy-2-[3-methyl-5-(trifluoromethyl)phenyl]-3-oxo-2,3-dihydro-1H-isoindol-1-yl}-1H-benzimidazol-2-yl)carbamate]
< 100	< 100	CCC(=O)Nc1nc2cc(C3(O)c4ccccc4C(=O)N3Cc3ccccc3)ccc2[nH]1 (centres unmarked) [Entry 176, N-{5-[1-hydroxy-3-oxo-2-(phenylmethyl)-2,3-dihydro-1H-isoindol-1-yl]-1H-benzimidazol-2-yl}propanamide]
< 100	< 100	COC(=O)Nc1nc2cc(C3(O)c4ccccc4C(=O)N3c3ccc(Cl)c(Cl)c3)ccc2[nH]1 (centres unmarked) [Entry 177, methyl {5-[2-(3,4-dichlorophenyl)-1-hydroxy-3-oxo-2,3-dihydro-1H-isoindol-1-yl]-1H-benzimidazol-2-yl}carbamate]
< 100	< 100	CCc1cccc(N2C(=O)c3ccccc3C2(O)c2ccc3[nH]c(NC(=O)OC)nc3c2)c1 (centres unmarked) [Entry 178, methyl {5-[2-(3-ethylphenyl)-1-hydroxy-3-oxo-2,3-dihydro-1H-isoindol-1-yl]-1H-benzimidazol-2-yl}carbamate]
100 to 1000	100 to 1000	CC[C@H](c1ccccc1)N1C(=O)c2ccccc2C1(O)c1ccc2[nH]c(NC(=O)OC)nc2c1 (stereo partly drawn) [Entry 182, methyl (5-{1-hydroxy-3-oxo-2-[(1R)-1-phenylpropyl]-2,3-dihydro-1H-isoindol-1-yl}-1H-benzimidazol-2-yl)carbamate]
< 100	< 100	COC(=O)Nc1nc2cc(C3(O)c4ccccc4C(=O)N3c3cccc(F)c3F)ccc2[nH]1 (centres unmarked) [Entry 184, methyl {5-[2-(2,3-difluorophenyl)-1-hydroxy-3-oxo-2,3-dihydro-1H-isoindol-1-yl]-1H-benzimidazol-2-yl}carbamate]
< 100	< 100	COC(=O)Nc1nc2cc(C3(O)c4ccccc4C(=O)N3c3cccc(C)c3C)ccc2[nH]1 (centres unmarked) [Entry 190, methyl {5-[2-(2,3-dimethylphenyl)-1-hydroxy-3-oxo-2,3-dihydro-1H-isoindol-1-yl]-1H-benzimidazol-2-yl}carbamate]
< 100	< 100	COC(=O)Nc1nc2cc(C3(O)c4ccccc4C(=O)N3C3CCc4ccccc43)ccc2[nH]1 (centres unmarked) [Entry 191, methyl {5-[2-(2,3-dihydro-1H-inden-1-yl)-1-hydroxy-3-oxo-2,3-dihydro-1H-isoindol-1-yl]-1H-benzimidazol-2-yl}carbamate]
